According to US6310095A, “Inhibitors of protein isoprenyl transferases” (University of Pittsburgh, priority 1998, dated 2001):
Counter-ions that a name gives are not always drawn. Like-named read-outs stand apart in the source and are kept apart here. Values belong to the compound of their own block, whether it stands above or below them.

Target: T1, protein farnesyltransferase (Rattus norvegicus, UniProt Q02293+Q04631)
T1 construct: Rat brain protein farnesyltransferase activity is measured; from tissue; host or cells: rat brain; purified according to Reiss et al., Cell 62:81-88 (1990), steps one through three
Assay: in vitro inhibition of protein farnesyltransferase (scintillation proximity assay, biotin-K Ras B fragment)
Type: biochemical
Conditions: for inhibition at 0.01 µM / inhibition at 0.1 µM / inhibition at 1 µM: read-out: % inhibition of farnesyltransferase
Procedure, shortened: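 Scintillation proximity read-out of farnesylation, using a biotinylated K Ras B fragment (0.1 mM final) in place of biotin-lamin. Enzyme purified from rat brain; results given as % inhibition.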

inhibition at 0.01 µM (at 1 × 10^-8 M): 85%
SMILES: CSCC[C@H](NC(=O)c1ccc(CN(Cc2ccccc2)c2cccc(Cl)c2)cc1-c1ccccc1C)C(=O)O [Example 847, N-[4-N-(N-benzyl-N(3-chlorophenyl)aminomethyl)-2-(2-methylphenyl)benzoyl]methionine lithium salt]

inhibition at 0.01 µM (at 1 × 10^-8 M): 87%
SMILES: CSCC[C@H](NC(=O)c1ccc(CN(Cc2ccccc2)c2ccc(Cl)cc2)cc1-c1ccccc1C)C(=O)O [Example 848, N-[4-N-(N-benzyl-N-(4-chlorophenyl)aminomethyl)-2-(2-methylphenyl)benzoyl]methionine lithium salt]

SMILES: CSCC[C@H](NC(=O)c1ccc(CN(Cc2ccccc2)c2ccccc2[N+](=O)[O-])cc1-c1ccccc1C)C(=O)O [Example 849, N-[4-(N-benzyl-N-(2-nitrophenyl)aminomethyl)-2-(2-methylphenyl)benzoyl]methionine lithium salt]
inhibition at 0.1 µM: 66%

SMILES: CSCC[C@H](NC(=O)c1ccc(CN(Cc2ccccc2)c2ccccc2SC)cc1-c1ccccc1C)C(=O)O [Example 850, N-[4-(N-benzyl-N-(2-methylthiophenyl)aminomethyl)-2-(2-methylphenyl)benzoyl]methionine lithium salt]
inhibition at 1 µM: 90%

SMILES: CSCC[C@H](NC(=O)c1ccc(CN(Cc2ccccc2)c2cccc(SC)c2)cc1-c1ccccc1C)C(=O)O [Example 851, N-[4-(N-benzyl-N-(3-methylthiophenyl)aminomethyl)-2-(2-methylphenyl)benzoyl]methionine lithium salt]
inhibition at 0.01 µM: 82%

SMILES: CSCC[C@H](NC(=O)c1ccc(CN(Cc2ccccc2)c2ccc(SC)cc2)cc1-c1ccccc1C)C(=O)O [Example 852, N-[4-(N-benzyl-N-(4-methylthiophenyl)aminomethyl)-2-(2-methylphenyl)benzoyl]methionine lithium salt]
inhibition at 0.01 µM: 79%

inhibition at 0.01 µM (at 1 × 10^-8 M): 85%
SMILES: CSCC[C@H](NC(=O)c1ccc(CN(Cc2ccccc2)c2ccc(C(F)(F)F)cc2)cc1-c1ccccc1C)C(=O)O [Example 853, N-[4-(N-benzyl-N-(4-trifluoromethylphenyl)aminomethvl)-2-(2-methylphenyl)benzoyl]methionine lithium salt]

% inhibition of farnesyltransferase (at 1 × 10^-7 M): 78%
SMILES: CSCC[C@H](NC(=O)c1ccc(/C=C/c2ccc(Oc3ccccc3Cl)cc2)cc1-c1ccccc1C)C(=O)O [Example 854]

% inhibition of farnesyltransferase (at 1 × 10^-7 M): 92%
SMILES: CSCC[C@H](NC(=O)c1ccc(CCc2ccc(Oc3ccccc3Cl)cc2)cc1-c1ccccc1C)C(=O)O [Example 855]

% inhibition of farnesyltransferase (at 1 × 10^-7 M): 97%
SMILES: CSCC[C@H](NC(=O)c1ccc(/C=C/c2ccc(Oc3ccccc3[N+](=O)[O-])cc2)cc1-c1ccccc1C)C(=O)O [Example 856]

% inhibition of farnesyltransferase (at 1 × 10^-7 M): 92%
SMILES: CSCC[C@H](NC(=O)c1ccc(CCc2ccc(Oc3ccccc3N)cc2)cc1-c1ccccc1C)C(=O)O [Example 857]

% inhibition of farnesyltransferase (at 1 × 10^-8 M): 60%
SMILES: CSCC[C@H](NC(=O)c1ccc(/C=C/c2ccc(Oc3cccc(Cl)c3)cc2)cc1-c1ccccc1C)C(=O)O [Example 858]

% inhibition of farnesyltransferase (at 1 × 10^-7 M): 86%
SMILES: CSCC[C@H](NC(=O)c1ccc(CCc2ccc(Oc3cccc(Cl)c3)cc2)cc1-c1ccccc1C)C(=O)O [Example 859]

% inhibition of farnesyltransferase (at 1 × 10^-8 M): 85%
SMILES: CSCC[C@H](NC(=O)c1ccc(CCc2ccc(Oc3ccc(Cl)cc3)cc2)cc1-c1ccccc1C)C(=O)O [Example 860]

% inhibition of farnesyltransferase (at 1 × 10^-7 M): 65%
SMILES: CSCC[C@H](NC(=O)c1ccc(/C=C/c2ccc(Oc3cccc([N+](=O)[O-])c3)cc2)cc1-c1ccccc1C)C(=O)O [Example 861]

inhibition at 1 µM (at 1 × 10^-6 M): 95%
SMILES: CSCC[C@H](NC(=O)c1ccc(CNc2ccc(N3CCCCC3)cc2)cc1-c1ccccc1C)C(=O)O [Example 862, N-[4-N-(4-piperidin-1-ylphenyl)aminomethyl-2-(2-methylphenyl)benzoyl]methionine]

inhibition at 0.1 µM (at 1 × 10^-7 M): 72%
SMILES: CSCC[C@H](NC(=O)c1ccc(CNc2ccc(N3CCOCC3)cc2)cc1-c1ccccc1C)C(=O)O [Example 863, N-[4-N-(4-morpholin-1-ylphenyl)aminomethyl-2-(2-methylphenyl)benzoyl]methionine]
